This note sets out measurements from ChEMBL document CHEMBL3751683, “Synthesis, colon-targeted studies and pharmacological evaluation of an anti-ulcerative colitis drug 4-Aminosalicylic acid-β-O-glucoside” (Eur J Med Chem, 2016).

The subject of data set [1] is Rattus norvegicus. As to the kind of experiment: Antiulcerative colitis activity in TNBS-induced Sprague-Dawley rat colitis model assessed as decrease in macroscopic injury ratio drug administered once daily for 6 consecutive days measured 24 hrs after last drug challenge. Format: functional, organism-based.
Data set [2] has as its system Rattus norvegicus. The experiment in a line: Antiulcerative colitis activity in TNBS-induced Sprague-Dawley rat colitis model assessed as myeloperoxidase activity at 385 mg/kg, qd for 6 consecutive days by spectrophotometry (reference value: 1.44 +/- 0.041 U/g). Format: functional.
In data set [3] the test system is Rattus norvegicus. The experiment in a line: Antiulcerative colitis activity in TNBS-induced Sprague-Dawley rat colitis model assessed as myeloperoxidase activity at 255 mg/kg, qd for 6 consecutive days by spectrophotometry (reference value: 1.44 +/- 0.041 U/g). In kind it is functional.
The test system of data set [4] is Rattus norvegicus. The experiment in a line: Antiulcerative colitis activity in TNBS-induced Sprague-Dawley rat colitis model assessed as normal morphology of colon at 255 mg/kg qd for 6 consecutive days by hematoxylin and eosin staining based light microscopic analysis. Format: functional, organism-based.
The nature of data set [5]: Stability of compound in isotonic phosphate buffer at pH 1.2 after 12 hrs by HPLC analysis. Format: physicochemical. Conditions: pH 1.2, 12 h.
Data set [6] deals with Rattus norvegicus. The experiment in a line: Antiulcerative colitis activity in TNBS-induced Sprague-Dawley rat colitis model drug administered for once daily for 6 consecutive days. Format: functional, organism-based.
The nature of data set [7]: Stability of compound in isotonic phosphate buffer at pH 7.4 after 12 hrs by HPLC analysis. In kind it is physicochemical. The settings on record: pH 7.4, 12 h.
The nature of data set [8]: Stability of compound in isotonic phosphate buffer at pH 6.8 after 12 hrs by HPLC analysis. Format: physicochemical. The settings on record: pH 6.8, 12 h.
The test system of data set [9] is Rattus norvegicus. The experiment in a line: Antiulcerative colitis activity in TNBS-induced Sprague-Dawley rat colitis model at 385 mg/kg, qd for 6 consecutive days measured after 12 days. Format: functional, organism-based.
Data set [10] has as its system Rattus norvegicus. As to the kind of experiment: Antiulcerative colitis activity in TNBS-induced Sprague-Dawley rat colitis model assessed as decrease in severity of inflammation at 385 to 128 mg/kg qd for 6 consecutive days measured on 7th day. Format: functional, organism-based.
Data set [11] relates to Rattus norvegicus. As to the kind of experiment: Antiulcerative colitis activity in TNBS-induced Sprague-Dawley rat colitis model assessed as effect on TNBS-induced mucosal abscess at 128 mg/kg qd for 6 consecutive days by hematoxylin and eosin staining based light microscopic analysis. In kind it is functional, organism-based.
A short description of data set [12]: Aqueous solubility of the compound. In kind it is physicochemical. Conditions: buffer.
Data set [13] relates to Rattus norvegicus. As to the kind of experiment: Antiulcerative colitis activity in TNBS-induced Sprague-Dawley rat colitis model assessed as decrease in colon/body weight ratio drug administered once daily for 6 consecutive days measured 24 hrs after last drug challenge. Format: functional, organism-based.
A short description of data set [14]: Partition coefficient, log P of the compound at pH 7.4 by shake flask method. Format: physicochemical. The settings on record: octanol/water.
In data set [15] the test system is Rattus norvegicus. The experiment in a line: Antiulcerative colitis activity in TNBS-induced Sprague-Dawley rat colitis model assessed as normal morphology of colon at 385 mg/kg qd for 6 consecutive days by hematoxylin and eosin staining based light microscopic analysis. In kind it is functional, organism-based.
Data set [16] deals with Rattus norvegicus. As to the kind of experiment: Antiulcerative colitis activity in TNBS-induced Sprague-Dawley rat colitis model assessed as decrease in severity of inflammation at 115 mg/kg qd for 6 consecutive days measured on 7th day. In kind it is functional, organism-based.
Data set [17] relates to Stomach. The experiment in a line: Drug level in colitis Sprague-Dawley rat model stomach homogenate treated with sodium 4-amino-2-((2S,3R,4S,5S,6R)-3,4,5-trihydroxy-6-(hydroxymethyl)tetrahydro-2H- pyran-2-yloxy)benzoate at pH 4.5 by HPLC analysis. In kind it is ADME, tissue-based. Conditions: in vivo.
A short description of data set [18]: Drug level in Sprague-Dawley rat cecum treated with sodium 4-amino-2-((2S,3R,4S,5S,6R)-3,4,5-trihydroxy-6-(hydroxymethyl)tetrahydro-2H- pyran-2-yloxy)benzoate at pH 7.4 after 12 hrs by HPLC analysis. In kind it is ADME, tissue-based, Caecum. The settings on record: in vivo, pH 7.4, 12 h.
For data set [19], the system named is Rattus norvegicus. The experiment in a line: Antiulcerative colitis activity in TNBS-induced Sprague-Dawley rat colitis model assessed as myeloperoxidase activity at 115 mg/kg, qd for 6 consecutive days by spectrophotometry (reference value: 1.44 +/- 0.041 U/g). Format: functional.
The test system of data set [20] is Stomach. As to the kind of experiment: Drug level in Sprague-Dawley rat stomach homogenate treated with sodium 4-amino-2-((2S,3R,4S,5S,6R)-3,4,5-trihydroxy-6-(hydroxymethyl)tetrahydro-2H- pyran-2-yloxy)benzoate at pH 4.5 by HPLC analysis. The settings on record: in vivo. Format: ADME, tissue-based.
For data set [21], the system named is Small intestine. The experiment in a line: Drug level in colitis Sprague-Dawley rat model small intestine homogenate treated with sodium 4-amino-2-((2S,3R,4S,5S,6R)-3,4,5-trihydroxy-6-(hydroxymethyl)tetrahydro-2H- pyran-2-yloxy)benzoate at pH 6.8 by HPLC analysis. Format: ADME, tissue-based. Conditions: in vivo.
Data set [22] concerns Rattus norvegicus. As to the kind of experiment: Antiulcerative colitis activity in TNBS-induced Sprague-Dawley rat colitis model assessed as effect on TNBS-induced mucosal abscess at 115 mg/kg qd for 6 consecutive days by hematoxylin and eosin staining based light microscopic analysis. In kind it is functional, organism-based.
Data set [23] relates to Colon. The experiment in a line: Drug level in colitis Sprague-Dawley rat model colon treated with sodium 4-amino-2-((2S,3R,4S,5S,6R)-3,4,5-trihydroxy-6-(hydroxymethyl)tetrahydro-2H- pyran-2-yloxy)benzoate at pH 7.4 after 12 hrs by HPLC analysis. In kind it is ADME, tissue-based. The settings on record: in vivo, pH 7.4, 12 h.
Data set [24] deals with Rattus norvegicus. The experiment in a line: Antiulcerative colitis activity in TNBS-induced Sprague-Dawley rat colitis model assessed as effect on TNBS-induced inflammatory infiltrate at 115 mg/kg qd for 6 consecutive days by hematoxylin and eosin staining based light microscopic analysis. Format: functional, organism-based.
Data set [25] is described as follows: Drug level in colitis Sprague-Dawley rat model cecum treated with sodium 4-amino-2-((2S,3R,4S,5S,6R)-3,4,5-trihydroxy-6-(hydroxymethyl)tetrahydro-2H- pyran-2-yloxy)benzoate at pH 7.4 after 12 hrs by HPLC analysis. Format: ADME, tissue-based, Caecum. The settings on record: in vivo, pH 7.4, 12 h.
The test system of data set [26] is Colon. As to the kind of experiment: Drug level in Sprague-Dawley rat colon treated with sodium 4-amino-2-((2S,3R,4S,5S,6R)-3,4,5-trihydroxy-6-(hydroxymethyl)tetrahydro-2H- pyran-2-yloxy)benzoate at pH 7.4 after 12 hrs by HPLC analysis. Format: ADME, tissue-based. The settings on record: in vivo, pH 7.4, 12 h.
Data set [27] relates to Small intestine. The experiment in a line: Drug level in Sprague-Dawley rat small intestine homogenate treated with sodium 4-amino-2-((2S,3R,4S,5S,6R)-3,4,5-trihydroxy-6-(hydroxymethyl)tetrahydro-2H- pyran-2-yloxy)benzoate at pH 6.8 by HPLC analysis. The settings on record: in vivo. Format: ADME, tissue-based.
Data set [28] has as its system Rattus norvegicus. The experiment in a line: Antiulcerative colitis activity in TNBS-induced Sprague-Dawley rat colitis model assessed as myeloperoxidase activity at 300 mg/kg, qd for 6 consecutive days by spectrophotometry (reference value: 1.44 +/- 0.041 U/g). Format: functional.
Data set [29] deals with Rattus norvegicus. The experiment in a line: Antiulcerative colitis activity in TNBS-induced Sprague-Dawley rat colitis model assessed as decrease in severity of inflammation at 300 mg/kg qd for 6 consecutive days measured on 7th day. In kind it is functional, organism-based.

Converted amounts (≈) assume the structure as drawn. The source made the active and inactive calls. The calls are words filed in the database; no cut-off is given here.

Consider `Nc1ccc(C(=O)[O-])c(O[C@@H]2O[C@H](CO)[C@@H](O)[C@H](O)[C@H]2O)c1.[Na+]`, for which the inhibition result in [1] and in [13] was “Dose-dependent effect” in each case. Besides, the results for the Activity in [2], in data set [3] and in [6] were 0.4 U/g, 0.51 U/g and “Dose-dependent effect”, respectively. For the same molecule, the outcome in data set [4], in [9] and in data set [15] was Active. Also, the Stability result in data set [5], in data set [7] and in data set [8] was “Stable” in each case. Moreover, the inhibition result in [10] was “Active”. Also, the outcome in data set [11] was inactive. Further, the concentration in solution in data set [12] (solubility) came to 635 mg/mL. In addition, the logD (as a rule, the decadic logarithm of the distribution of all forms, ionised or not, between an organic phase and buffer at a given pH) in data set [14] was -0.44.
Turning to `Nc1ccc(C(=O)O)c(O)c1` [AMINOSALICYLIC ACID], in [16], the inhibition result is “Active”. Moreover, the Drug metabolism result in data set [17], in data set [18], in [20], in data set [21], in [23] and in data set [25] was “metabolite_detected” each time. Also, the Drug metabolism result in data set [26] and in data set [27] was “metabolite_detected” in each case. Further, the Activity in [19] worked out at 0.82 U/g. The result in [22] and in [24] was inactive. For the same molecule, in [12], the solubility – broadly, the dissolved amount per volume that the medium holds – was determined as 1.43 mg/mL (≈ 9.34 mM). In [14], this molecule showed a logD of 0.901.
In the case of `O=C(O)c1cc(/N=N/c2ccc(S(=O)(=O)Nc3ccccn3)cc2)ccc1O` [SULFASALAZINE], the Activity in data set [28] stood at 0.58 U/g. The inhibition entry in data set [29] was “Active”.
Regarding `Nc1ccc(O)c(C(=O)O)c1`, the inhibition result in data set [16] is “Active”. Further, the outcome in data set [22] and in data set [24] was inactive.
